From publication PMC5831858, “Pharmacological characterisation of CR6086, a potent prostaglandin E2 receptor 4 antagonist, as a new potential disease-modifying anti-rheumatic drug” (Arthritis Research & Therapy, 2018)
Like-named read-outs stand apart in the source and are kept apart here.

How the values were obtained:
A1 = A1 (Homo sapiens, UniProt P30542); assay: Adenosine receptor A1 binding; conditions: [^3H]DPCPX, Human recombinant CHO cells, read-out: CR6086 Activity at 10µM
D5 = D5 (Homo sapiens, UniProt P21918); assay: Dopamine receptor D5 binding; conditions: [^3H]SCH 23390, Human recombinant GH4 cells, read-out: CR6086 Activity at 10µM
M4 = M4 (Homo sapiens, UniProt P08173); assay: Muscarinic acetylcholine receptor M4 binding; conditions: [^3H]4-DAMP, Human recombinant CHO cells, read-out: CR6086 Activity at 10µM
5-HT1A = 5-HT1A (Homo sapiens, UniProt P08908); assay: Serotonin receptor 5-HT1A binding; conditions: [^3H]8-OH-DPAT, Human recombinant HEK-293 cells, read-out: CR6086 Activity at 10µM
5-HT2C = 5-HT2C (Homo sapiens, UniProt P28335); assay: Serotonin receptor 5-HT2C binding; conditions: [^3H]mesulergine, Human recombinant HEK-293 cells, read-out: CR6086 Activity at 10µM
CCR1 = CCR1 (Homo sapiens, UniProt P32246); assay: CCR1 receptor binding; conditions: [^125I]MIP-1α, Human recombinant HEK-293 cells, read-out: CR6086 Activity at 10µM
TNF-α = TNF-α receptor binding; conditions: [^125I]TNF-α, U-937 cells
GR = GR (Homo sapiens, UniProt P04150); assay: Nuclear receptor GR binding; conditions: [^3H]dexamethasone, IM-9 cells (cytosol), read-out: CR6086 Activity at 10µM
rat EP4 receptor = rat EP4 receptor (Rattus norvegicus, UniProt P43114); assay: EP4 radioligand binding assay ([^3H]PGE2), rat receptor; parameters: the cDNA encoding the full-length rat (NM_032076) or mouse (NM_001136079) EP4 receptors; host or cells: HEK293 (transient)
From the text: For rodent EP4 receptor cloning, the cDNA encoding the full-length rat (NM_032076) or mouse (NM_001136079) EP4 receptors cloned in pCMV6 entry was provided by OriGene Inc. (TrueORF Gold, catalogue numbers RN206839 and MC216813; OriGene, Rockville, MD, USA). Expression of rat and mouse receptors was obtained by transfecting HEK293 cells with the respective vector using Lipofectamine 3000 reagent (Thermo Fisher Scientific) according to the manufacturer’s instructions.
Membranes expressing the human EP4 receptor were prepared from stably transfected HEK293 cell line. […] Protein content of the cell membrane suspension was determined using bovine serum albumin (BSA) as a standard.
Experimental procedures were performed according to the method of Abramovitz et al.. […] The residual [^3H]PGE2 binding was determined using a solid scintillation counter (TopCount; PerkinElmer) after at least 1 h of stabilisation. In saturation binding studies, isotherm-binding curves generated with six to eight different concentrations of [^3H]PGE2 (from 0.5 to 25 nM) were evaluated. […]
Specific binding to the receptors was defined as the difference between total binding and non-specific binding, as determined in the presence of an excess of unlabelled ligand. […] Competition curves were analysed to assess the half-maximal inhibitory concentration (IC50). […] The results of replicated curves were expressed as mean ± SEM.

Sequence of rat EP4 receptor (P43114 whole entry): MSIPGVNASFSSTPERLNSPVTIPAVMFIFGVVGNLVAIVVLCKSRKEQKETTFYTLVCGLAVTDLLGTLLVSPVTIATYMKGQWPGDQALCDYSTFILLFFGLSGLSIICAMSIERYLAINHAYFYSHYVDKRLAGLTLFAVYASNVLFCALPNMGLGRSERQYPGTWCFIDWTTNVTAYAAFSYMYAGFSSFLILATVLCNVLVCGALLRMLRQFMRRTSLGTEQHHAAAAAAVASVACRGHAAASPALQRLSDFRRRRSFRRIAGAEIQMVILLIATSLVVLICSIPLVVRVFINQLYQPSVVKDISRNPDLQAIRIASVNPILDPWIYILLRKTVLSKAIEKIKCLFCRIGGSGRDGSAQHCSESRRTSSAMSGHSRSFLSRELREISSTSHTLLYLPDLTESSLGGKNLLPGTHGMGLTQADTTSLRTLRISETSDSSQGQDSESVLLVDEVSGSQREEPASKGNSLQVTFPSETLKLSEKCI
Sequence of GR (P04150 whole entry): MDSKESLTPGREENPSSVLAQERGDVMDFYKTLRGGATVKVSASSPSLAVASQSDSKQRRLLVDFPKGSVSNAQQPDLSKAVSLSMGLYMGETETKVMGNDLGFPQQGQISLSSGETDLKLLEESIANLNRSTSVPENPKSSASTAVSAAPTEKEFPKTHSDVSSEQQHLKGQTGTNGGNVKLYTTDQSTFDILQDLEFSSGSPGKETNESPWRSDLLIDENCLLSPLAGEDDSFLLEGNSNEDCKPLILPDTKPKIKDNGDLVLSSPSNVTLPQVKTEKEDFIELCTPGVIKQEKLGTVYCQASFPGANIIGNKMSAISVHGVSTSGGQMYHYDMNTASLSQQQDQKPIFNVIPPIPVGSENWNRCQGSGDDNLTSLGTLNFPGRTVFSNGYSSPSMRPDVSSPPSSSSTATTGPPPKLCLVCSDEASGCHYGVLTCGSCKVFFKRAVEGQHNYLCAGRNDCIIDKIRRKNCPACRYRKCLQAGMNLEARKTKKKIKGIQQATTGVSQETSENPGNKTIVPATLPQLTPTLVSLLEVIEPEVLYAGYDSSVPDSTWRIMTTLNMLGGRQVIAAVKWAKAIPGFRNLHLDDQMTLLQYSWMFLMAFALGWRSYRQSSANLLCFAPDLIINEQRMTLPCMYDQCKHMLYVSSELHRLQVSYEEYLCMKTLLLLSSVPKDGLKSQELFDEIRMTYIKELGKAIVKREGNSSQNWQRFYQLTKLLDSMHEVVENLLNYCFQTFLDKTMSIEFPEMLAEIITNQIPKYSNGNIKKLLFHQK
Sequence of A1 (P30542 whole entry): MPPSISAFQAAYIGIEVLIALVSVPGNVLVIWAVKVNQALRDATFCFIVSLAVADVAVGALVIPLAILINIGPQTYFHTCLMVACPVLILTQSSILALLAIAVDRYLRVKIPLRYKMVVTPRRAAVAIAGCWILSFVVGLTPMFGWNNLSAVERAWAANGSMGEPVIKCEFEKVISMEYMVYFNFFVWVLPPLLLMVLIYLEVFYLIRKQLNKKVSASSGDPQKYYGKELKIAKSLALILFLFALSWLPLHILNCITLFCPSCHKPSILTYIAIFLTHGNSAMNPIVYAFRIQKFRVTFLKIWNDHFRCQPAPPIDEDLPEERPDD
Sequence of D5 (P21918 whole entry): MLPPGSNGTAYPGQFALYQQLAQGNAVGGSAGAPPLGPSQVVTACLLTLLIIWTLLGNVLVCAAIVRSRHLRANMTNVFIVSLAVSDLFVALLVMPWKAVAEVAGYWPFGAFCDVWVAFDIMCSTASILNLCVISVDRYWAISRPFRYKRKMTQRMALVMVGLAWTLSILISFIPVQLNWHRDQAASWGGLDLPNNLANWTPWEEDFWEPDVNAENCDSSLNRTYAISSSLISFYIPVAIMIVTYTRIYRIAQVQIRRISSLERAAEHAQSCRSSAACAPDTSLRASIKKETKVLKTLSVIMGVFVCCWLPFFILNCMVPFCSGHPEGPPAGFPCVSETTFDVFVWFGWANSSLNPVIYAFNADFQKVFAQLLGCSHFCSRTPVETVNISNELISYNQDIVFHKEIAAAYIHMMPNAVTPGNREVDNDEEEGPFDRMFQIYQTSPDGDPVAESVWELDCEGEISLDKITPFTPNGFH
Sequence of 5-HT2C (P28335 33-458): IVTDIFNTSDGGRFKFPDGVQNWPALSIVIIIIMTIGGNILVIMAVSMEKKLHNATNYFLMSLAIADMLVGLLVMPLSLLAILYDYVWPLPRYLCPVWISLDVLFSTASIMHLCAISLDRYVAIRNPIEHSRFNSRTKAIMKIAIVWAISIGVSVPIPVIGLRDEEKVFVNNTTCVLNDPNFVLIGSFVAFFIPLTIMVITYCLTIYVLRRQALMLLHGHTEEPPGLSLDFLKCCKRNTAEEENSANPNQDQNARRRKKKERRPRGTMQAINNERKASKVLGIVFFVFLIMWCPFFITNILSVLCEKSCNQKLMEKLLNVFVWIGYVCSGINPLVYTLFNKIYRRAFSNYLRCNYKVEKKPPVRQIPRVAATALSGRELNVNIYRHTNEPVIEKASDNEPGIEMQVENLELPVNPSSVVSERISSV
Sequence of CCR1 (P32246 whole entry): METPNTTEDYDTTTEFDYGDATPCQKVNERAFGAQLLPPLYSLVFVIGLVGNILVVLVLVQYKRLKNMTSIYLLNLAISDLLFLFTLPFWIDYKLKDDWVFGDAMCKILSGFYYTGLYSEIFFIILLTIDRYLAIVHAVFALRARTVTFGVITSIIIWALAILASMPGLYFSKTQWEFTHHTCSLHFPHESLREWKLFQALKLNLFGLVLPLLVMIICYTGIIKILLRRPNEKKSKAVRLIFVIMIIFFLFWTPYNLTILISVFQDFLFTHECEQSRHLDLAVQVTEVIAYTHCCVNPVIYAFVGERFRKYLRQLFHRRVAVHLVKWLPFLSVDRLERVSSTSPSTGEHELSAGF
Sequence of 5-HT1A (P08908 whole entry): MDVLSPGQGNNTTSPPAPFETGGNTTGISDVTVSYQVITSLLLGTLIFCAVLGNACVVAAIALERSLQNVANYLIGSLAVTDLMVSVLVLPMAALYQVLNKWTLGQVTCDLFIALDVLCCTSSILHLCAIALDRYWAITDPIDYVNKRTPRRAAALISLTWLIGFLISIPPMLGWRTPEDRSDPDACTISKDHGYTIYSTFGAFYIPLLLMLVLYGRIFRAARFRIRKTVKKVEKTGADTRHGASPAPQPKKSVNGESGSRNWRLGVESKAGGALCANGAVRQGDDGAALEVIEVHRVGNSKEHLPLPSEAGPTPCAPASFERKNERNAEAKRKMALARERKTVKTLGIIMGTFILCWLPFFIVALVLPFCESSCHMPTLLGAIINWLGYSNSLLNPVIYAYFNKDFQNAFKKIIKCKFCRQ
Sequence of M4 (P08173 whole entry): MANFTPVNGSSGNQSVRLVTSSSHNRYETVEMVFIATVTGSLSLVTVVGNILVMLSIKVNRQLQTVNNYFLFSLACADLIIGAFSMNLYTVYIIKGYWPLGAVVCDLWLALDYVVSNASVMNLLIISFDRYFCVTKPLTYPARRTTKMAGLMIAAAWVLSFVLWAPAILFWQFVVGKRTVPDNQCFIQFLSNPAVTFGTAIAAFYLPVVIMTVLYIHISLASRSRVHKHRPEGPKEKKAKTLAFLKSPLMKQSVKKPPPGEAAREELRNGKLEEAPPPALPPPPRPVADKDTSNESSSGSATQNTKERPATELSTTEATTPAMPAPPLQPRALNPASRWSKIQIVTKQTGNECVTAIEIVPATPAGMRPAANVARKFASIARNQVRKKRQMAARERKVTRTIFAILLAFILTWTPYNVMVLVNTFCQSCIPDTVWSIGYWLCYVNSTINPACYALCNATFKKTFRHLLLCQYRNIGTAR

SMILES: O=C([O-])c1ccc(C2(NC(=O)[C@H]3CC4(CCN3Cc3ccc(C(F)(F)F)cc3)CC4)CC2)cc1.[Na+] [CR6086, Sodium (R)-4-(1-(6-(4-(trifluoromethyl)benzyl)-6-azaspiro[2.5]octane-5-carboxamido)cyclopropyl)benzoate]
- inhibition at 10 µM (A1): < 20%
- inhibition at 10 µM (D5): < 20%
- inhibition at 10 µM (M4): < 20%
- inhibition at 10 µM (5-HT1A): < 20%
- inhibition at 10 µM (5-HT2C): < 20%
- inhibition at 10 µM (CCR1): < 20%
- CR6086 Activity at 10µM (TNF-α): IN (IN = < 20% displacement or inhibition (all tables))
- inhibition at 10 µM (GR): < 20%
- Ki (rat EP4 receptor; [^3H]PGE2 displacement, transiently transfected HEK293 membranes, read-out: Ki CR6086): 76.6 ± 12.3 nM
- Ki (rat EP4 receptor; expressed as mass concentration, read-out: Ki value for the rat EP4 receptor (converted)): 73.2 nM
